Here are results for three compounds from US9605384B2, “Hydrophobic paper, cardboard, and packaging” (STL SUSTAINABLE TECHNOLOGIES, LLC, priority 2010, dated 2017).

“Also recorded” adds a separate entry of the source.

Data set [1] is described as follows: Stability of halosilane in saturated aqueous salt solution. The format is physicochemical. The note with it: halosilane added to saturated aqueous salt solution. As to the method:
After cooling to room temperature, 25 ml of the saturated salt solution was added to a 50 ml beaker. To this, 1.2 ml of methyltrichlorosilane was slowly added and stirred into the saturated water. […] A piece of maple wood was added to the solution and vigorously stirred. The dissolved methyltrichlorosilane reacted with the wood and produced hydrochloric acid (HCl) gas as a by-product. There was a slight exotherm observed. After 2 minutes, the wood was removed from the water solution and air-dried. […] The water remained tightly beaded up and gradually evaporated after 30 minutes.

A short description of data set [2]: Solubility / miscibility in water. The format is physicochemical.

Consider `C[Si](Cl)(Cl)Cl` [methyltrichlorosilane], for which the “reaction with water of the saturated salt solution” value in data set [1] is “did not react with the water; also recorded: no reaction; also recorded: No exotherm or reaction was observed”.

In the case of `CO[Si](C)(OC)OC` [methyltrimethoxysilane], the miscibility with water entry in data set [2] is “readily miscible with water”.

In the case of `CCCCCCCC[Si](OCC)(OCC)OCC` [n-octyltriethoxysilane], the miscibility with water result in data set [2] is “not very miscible at any concentration”.
